Assay results published in patent US20020098148A1, “NON-STEROIDAL RADIOLABELED AGONIST/ANTAGONIST COMPOUNDS AND THEIR USE IN PROSTATE CANCER IMAGING” (priority 1997, published 2002).

Assays:
[1] = Cockshott et al. 1991; cited from earlier work
[2] = target: T1, androgen receptor (AR) (Rattus norvegicus, UniProt P15207); assay: AR competitive binding with 3H-mibolerone in cytosol
T1 construct: The minimum concentration of ^3H-MIB to saturate AR sites in the cytosol preparation was 1 nM; from tissue; host or cells: cytosol
T1 sequence (P15207 1-902): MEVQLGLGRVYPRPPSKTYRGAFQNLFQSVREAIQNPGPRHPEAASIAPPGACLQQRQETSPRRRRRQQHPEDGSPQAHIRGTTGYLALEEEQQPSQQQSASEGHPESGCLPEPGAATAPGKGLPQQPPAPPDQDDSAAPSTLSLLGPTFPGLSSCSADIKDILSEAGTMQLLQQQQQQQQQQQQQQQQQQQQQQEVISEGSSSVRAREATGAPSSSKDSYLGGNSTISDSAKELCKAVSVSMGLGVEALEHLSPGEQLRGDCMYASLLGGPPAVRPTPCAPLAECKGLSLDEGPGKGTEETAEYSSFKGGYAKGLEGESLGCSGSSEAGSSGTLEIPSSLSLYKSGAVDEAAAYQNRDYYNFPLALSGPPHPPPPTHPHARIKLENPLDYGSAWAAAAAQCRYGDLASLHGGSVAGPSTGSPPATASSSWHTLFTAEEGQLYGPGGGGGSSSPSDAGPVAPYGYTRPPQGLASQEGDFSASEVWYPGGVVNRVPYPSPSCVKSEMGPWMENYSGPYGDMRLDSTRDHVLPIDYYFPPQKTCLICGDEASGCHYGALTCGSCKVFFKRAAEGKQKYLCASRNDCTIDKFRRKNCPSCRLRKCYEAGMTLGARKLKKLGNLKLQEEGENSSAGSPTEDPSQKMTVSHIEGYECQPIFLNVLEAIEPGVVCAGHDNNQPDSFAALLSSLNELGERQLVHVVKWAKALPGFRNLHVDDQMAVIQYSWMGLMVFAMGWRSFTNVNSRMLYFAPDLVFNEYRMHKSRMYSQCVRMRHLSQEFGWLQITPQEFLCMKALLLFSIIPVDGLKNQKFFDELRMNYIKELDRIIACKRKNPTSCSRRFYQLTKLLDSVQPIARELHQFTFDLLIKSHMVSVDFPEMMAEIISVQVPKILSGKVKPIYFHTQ
Procedure: For the determination of non-specific binding, separate experiments were conducted by adding 1,000 nM MIB to the incubate. Unless otherwise indicated, all experiments were repeated three times or more. […] Radioactivity was counted in a liquid scintillation counter (Model LS6800, Beckman Instruments Inc., Palo Alto, Calif.).
To determine the Kd of MIB, data were analyzed using a modified form of the Scatchard equation:
where B was the concentration of specifically-bound ^3H-MIB in the incubate, F was the concentration of free ^3H-MIB in the incubate, and Bmax was the maximum concentration of ^3H-MIB specifically bound to AR, which is also the concentration of available AR binding sites in the incubate. […]
For competition binding experiments, competitive displacement curves were constructed for each ligand with percent specific binding (specific binding of ^3H-MIB at a particular ligand concentration expressed as a percentage of the specific binding of ^3H-MIB in the absence of ligand) on the vertical axis and ligand concentration on the horizontal axis. […]
where B0 is the specific binding of ^3H-MIB in the absence of ligand, and C is the ligand concentration. Binding affinities of the ligands were then compared using the equilibrium dissociation constant (Ki) of each ligand, as calculated using the equation below: […]

Structure (SMILES)	share of radioactivity in plasma accounted for by parent compound [1]	Ki [2]	Ki value lower than that of R-Bicalutamide ([2]; R-isomer)
CC(O)(CS(=O)(=O)c1ccc(F)cc1)C(=O)Nc1ccc(C#N)c(C(F)(F)F)c1 (racemic) [racemic ^14C-labeled bicalutamide, bicalutamide]	virtually all of the radioactivity in plasma	–	–
C[C@](O)(CS(=O)(=O)c1ccc(I)cc1)C(=O)Nc1ccc(C#N)c(C(F)(F)F)c1 [Compound 2]	–	3.1 nM	73%
